Measured values reported in patent US20150105252A1, “SUBSTITUTED PYRAZOLES AS HERBICIDES” (E I DU PONT DE NEMOURS AND COMPANY, priority 2013, published 2015).

Assays:
crabgrass, large = assay: Test E preemergence; type: in vivo, Digitaria sanguinalis; conditions: 21 days, scale 0 to 100
Excerpt: Seeds of plant species selected from bermudagrass (Cynodon dactylon), Surinam grass (Brachiaria decumbens), crabgrass, large (large crabgrass, Digitaria sanguinalis), crabgrass, naked (naked crabgrass, Digitaria nuda), foxtail, green (green foxtail, Setaria viridis), johnsongrass (Sorghum halepense), kochia (Kochia scoparia), morningglory (pitted morningglory, Ipomoea lacunosa), nutsedge, purple (purple nutsedge, Cyperus rotundus), ragweed (common ragweed, Ambrosia elation), mustard, black (black mustard, Brassica nigra), guineagrass (Panicum maximum), dallisgrass (Paspalum dilatatum), barnyardgrass (Echinochloa crus-galli), sandbur (southern sandbur, Cenchrus echinatus), sowthistle (common sowthistle, Sonchus oleraceous), ryegrass, Italian (Italian ryegrass, Lolium multiflorum), signalgrass (broadleaf signalgrass, Brachiaria platyphylla), dayflower, VA (Virginia (VA) dayflower, Commelina virginica), bluegrass (annual bluegrass, Poa annua), quackgrass (Elytrigia repens), mallow (common mallow, Malva sylvestris), buckwheat, wild (wild buckwheat, Polygonum convolvulus), leafy spurge (Euphorbia esula), common chickweed (Stellaria media), wild poinsettia (Euphorbia heterophylla), pigweed, palmer (palmer pigweed, Amaranthus palmeri), and pigweed (redroot pigweed, Amaranthus retroflexus) were planted into a blend of loam soil and sand and treated preemergence with test chemicals formulated in a non-phytotoxic solvent mixture which included a surfactant.
Treated plants and controls were maintained in a greenhouse for 21 days, after which time all species were compared to controls and visually evaluated. Plant response ratings, summarized in Table E, are based on a scale of 0 to 100 where 0 is no effect and 100 is complete control. A dash (-) response means no test result.

dayflower, VA = assay: Test F postemergence; type: in vivo, Commelina virginica; conditions: scale 0 to 100
Excerpt: Seeds of plant species selected from corn (Zea mays), soybean (Glycine max), velvetleaf (Abutilon theophrasti), lambsquarters (Chenopodium album), wild poinsettia (Euphorbia heterophylla), pigweed, palmer (palmer pigweed, Amaranthus palmeri), common waterhemp (Amaranthus rudis), surinam grass (Brachiaria decumbens), large crabgrass (Digitaria sanguinalis), crabgrass, Brazil (Brazilian crabgrass, Digitaria horizontalis), fall panicum (Panicum dichotomiflorum), giant foxtail (Setaria faberii), green foxtail (Setaria viridis), goosegrass (Eleusine indica), johnsongrass (Sorghum halepense), common ragweed (Ambrosia elation), barnyardgrass (Echinochloa crus-galli), southern sandbur (Cenchrus echinatus), arrowleaf sida (Sida rhombifolia), Italian ryegrass (Lolium multiflorum), dayflower, VA (Virginia (VA) dayflower, Commelina virginica), field bindweed (Convolvulus arvensis), cocklebur (common cocklebur, Xanthium strumarium), morningglory (Ipomoea coccinea), nightshade (eastern black nightshade, Solanum ptycanthum), kochia (Kochia scoparia), yellow nutsedge (Cyperus esculentus), and hairy beggarticks (Bidens pilosa), were planted into a silt loam soil and treated preemergence with test chemicals formulated in a non-phytotoxic solvent mixture which included a surfactant.
At the same time, plants from these crop and weed species and also horseweed (Canada horseweed, Conyza canadensis), smartweed (ladysthumb smartweed, Polygonum persicaria), waterhemp_RES1, (ALS & Triazine resistant common waterhemp, Amaranthus rudis), and waterhemp_RES2, (ALS & HPPD resistant common waterhemp, Amaranthus rudis) were treated with postemergence applications of test chemicals formulated in the same manner. Plants ranged in height from 2 to 18 cm for postemergence treatments (1- to 4-leaf stage). Treated plants and controls were maintained in a greenhouse for 14 to 21 days, after which time all species were compared to controls and visually evaluated. Plant response ratings, summarized in Table F, are based on a scale of 0 to 100 where 0 is no effect and 100 is complete control. A dash (-) response means no test result.

ryegrass, Italian = assay: Test D preemergence; type: in vivo, Lolium multiflorum; conditions: scale 0 to 100
Excerpt: (§1) Seeds of plant species selected from bluegrass (annual bluegrass, Poa annua), blackgrass (Alopecurus myosuroides), canarygrass (littleseed canarygrass, Phalaris minor), chickweed (common chickweed, Stellaria media), galium (catchweed bedstraw, Galium aparine), bromegrass, downy (downy bromegrass, Bromus tectorum), field poppy (Papaver rhoeas), field violet (Viola arvensis), foxtail, green (green foxtail, Setaria viridis), deadnettle (henbit deadnettle, Lamium amplexicaule), ryegrass, Italian (Italian ryegrass, Lolium multiflorum), kochia (Kochia scoparia), lambsquarters (Chenopodium album), oilseed rape (Brassica napus), pigweed (redroot pigweed, Amaranthus retroflexus), chamomile (scentless chamomile, Matricaria inodora), speedwell (bird's-eye speedwell, Veronica persica), barley, spring (spring barley, Hordeum vulgare), wheat, spring (spring wheat, Triticum aestivum), buckwheat, wild (wild buckwheat, Polygonum convolvulus), mustard, wild (wild mustard, Sinapis arvensis), oat, wild (wild oat, Avena fatua), radish, wild (wild radish, Raphanus raphanistrum), windgrass (Apera spica-venti), Russian thistle (Salsola kali), barley, winter (winter barley, Hordeum vulgare), and wheat, winter (winter wheat, Triticum aestivum) were planted into a silt loam soil and treated preemergence with test chemicals formulated in a non-phytotoxic solvent mixture which included a surfactant.
(§2) At the same time, these species were planted in pots containing Redi-Earth® planting medium (Scotts Company, 14111 Scottslawn Road, Marysville, Ohio 43041) comprising spaghnum peat moss, vermiculite, wetting agent and starter nutrients and treated with postemergence applications of the test chemicals formulated in the same manner. Plants ranged in height from 2 to 18 cm (1- to 4-leaf stage). Treated plants and controls were maintained in a controlled growth environment for 14 to 21 days after which time all species were compared to controls and visually evaluated. Plant response ratings, summarized in Table D, are based on a scale of 0 to 100 where 0 is no effect and 100 is complete control. A dash (-) response means no test result.

chamomile = assay: Test D preemergence; type: in vivo, Matricaria inodora; conditions: scale 0 to 100
Excerpt: as §1, §2

sedge, umbrella = assay: Test C flooded paddy test; type: in vivo, Cyperus difformis; conditions: Flood
How it was run: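 Flooded 3 cm over soil; compound into paddy water; depth kept constant. Greenhouse 13–15 d.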

[1] = 31 g ai/ha, scale 0 to 100 (0 no effect, 100 complete control)
[2] = 62 g ai/ha, scale 0 to 100 (0 no effect, 100 complete control)
[3] = 125 g ai/ha, scale 0 to 100 (0 no effect, 100 complete control)

SMILES | Plant response rating, Crabgrass, Large (crabgrass, large; 16 g ai/ha) | Plant response rating, Crabgrass, Large (crabgrass, large; 31 g ai/ha) | Plant response rating, Crabgrass, Large (crabgrass, large; 62 g ai/ha) | Plant response rating, Crabgrass, Large (crabgrass, large; 125 g ai/ha) | Plant response rating, Crabgrass, Large (crabgrass, large; 250 g ai/ha) | Plant response rating, Dayflower, VA (dayflower, VA; Postemergence, 31 g ai/ha) | Plant response rating, Dayflower, VA (dayflower, VA; Postemergence, 125 g ai/ha) | Plant response rating, Dayflower, VA (dayflower, VA; Postemergence, 250 g ai/ha) | Plant response rating, Dayflower, VA (dayflower, VA; postemergence, 62 g ai/ha) | Plant response rating, Dayflower, VA (dayflower, VA; postemergence, 500 g ai/ha) | Plant response rating, Sedge, Umbrella (sedge, umbrella; [1]) | Plant response rating, Sedge, Umbrella (sedge, umbrella; [2]) | further results
CCc1cc(C(=O)NCC(F)(F)F)nn1Cc1ccnc(C(F)(F)F)c1 [Compound 78, 5-ethyl-N-(2,2,2-trifluoroethyl)-1-[[(2-trifluoromethyl)-4-pyridinyl]methyl]-1H-pyrazole-3-carboxamide] | 90 | 100 | 100 | 100 | 100 | 20 | 60 | 90 | 50 | 98 | – | – | –
CCc1cc(C(=O)NC(C)C)nn1Cc1ccnc(C(F)(F)F)c1 [Compound 103] | 100 | 100 | 100 | 100 | 100 | – | – | – | – | – | – | – | –
CCOc1cc(C(=O)NCC(F)(F)F)nn1Cc1ccnc(C(F)(F)F)c1 [Compound 104] | 100 | 100 | 100 | 100 | 100 | 35 | 70 | 90 | 55 | 95 | – | – | –
CCCc1cc(C(=O)NCC(F)(F)F)nn1Cc1ccnc(C(F)(F)F)c1 [Compound 105] | 98 | 100 | 100 | 100 | 100 | 20 | 80 | 85 | 50 | 90 | – | – | –
CCCc1cc(C(=O)NCC(F)(F)F)nn1Cc1cc(C(F)(F)F)nn1C [Compound 138] | – | – | – | – | – | – | – | – | – | – | – | – | Plant response rating, Ryegrass, Italian (ryegrass, Italian; 62 g ai/ha): 35; Plant response rating, Ryegrass, Italian (ryegrass, Italian; 125 g ai/ha): 70; Plant response rating, Ryegrass, Italian (ryegrass, Italian; 250 g ai/ha): 90; Plant response rating, Chamomile (chamomile; 31 g ai/ha): 0; Plant response rating, Chamomile (chamomile; 62 g ai/ha): 95; Plant response rating, Chamomile (chamomile; 125 g ai/ha): 100; Plant response rating, Chamomile (chamomile; 250 g ai/ha): 100
CCCNC(=O)c1cc(CCCl)n(Cc2ccnc(C(F)(F)F)c2)n1 [Compound 145] | – | – | – | – | – | – | – | – | – | – | 100 | 100 | Plant response rating, Sedge, Umbrella (sedge, umbrella; 125 g ai/ha, scale 0 to 100): 100; Plant response rating, Sedge, Umbrella (sedge, umbrella; 250 g ai/ha, scale 0 to 100): 100
CCOc1cc(C(=O)NC(C)C)nn1Cc1ccnc(C(F)(F)F)c1 [Compound 188] | – | – | – | – | – | 40 | 70 | 90 | 50 | 90 | – | – | Plant response rating, Ryegrass, Italian (ryegrass, Italian; 62 g ai/ha): 75; Plant response rating, Ryegrass, Italian (ryegrass, Italian; 125 g ai/ha): 85; Plant response rating, Ryegrass, Italian (ryegrass, Italian; 250 g ai/ha): 95; Plant response rating, Chamomile (chamomile; 31 g ai/ha): 100; Plant response rating, Chamomile (chamomile; 62 g ai/ha): 100; Plant response rating, Chamomile (chamomile; 125 g ai/ha): 100; Plant response rating, Chamomile (chamomile; 250 g ai/ha): 100
CCOc1cc(C(=O)NC2CC2)nn1Cc1ccnc(C(F)(F)F)c1 [Compound 189] | 100 | 100 | 100 | – | – | – | – | – | – | – | – | – | Plant response rating, Ryegrass, Italian (ryegrass, Italian; 62 g ai/ha): 40; Plant response rating, Ryegrass, Italian (ryegrass, Italian; 125 g ai/ha): 60; Plant response rating, Ryegrass, Italian (ryegrass, Italian; 250 g ai/ha): 95; Plant response rating, Chamomile (chamomile; 31 g ai/ha): 65; Plant response rating, Chamomile (chamomile; 62 g ai/ha): 100; Plant response rating, Chamomile (chamomile; 125 g ai/ha): 100; Plant response rating, Chamomile (chamomile; 250 g ai/ha): 100; Plant response rating, Crabgrass, Large (crabgrass, large; 4 g ai/ha): 0; Plant response rating, Crabgrass, Large (crabgrass, large; 8 g ai/ha): 95
CCONC(=O)c1cc(OCC)n(Cc2ccnc(C(F)(F)F)c2)n1 [Compound 195] | – | – | – | – | – | – | – | – | – | – | 0 | 75 | Plant response rating, Sedge, Umbrella (sedge, umbrella; [3]): 80; Plant response rating, Sedge, Umbrella (sedge, umbrella; 250 g ai/ha, scale 0 to 100): 85
CCc1cc(C(=O)NC2CC2)nn1Cc1ccnc(OCC(F)(F)F)c1 [Compound 200] | – | – | – | – | – | – | – | – | – | – | 50 | 80 | Plant response rating, Sedge, Umbrella (sedge, umbrella; [3]): 100; Plant response rating, Sedge, Umbrella (sedge, umbrella; 250 g ai/ha, scale 0 to 100): 100
CCc1cc(C(=O)NC2CC2)nn1Cc1cc(C(F)(F)C(F)(F)F)nn1C [Compound 226] | – | – | – | – | – | – | – | – | – | – | 20 | 25 | Plant response rating, Sedge, Umbrella (sedge, umbrella; [3]): 85
